{
  "source": "patent US9200318B2",
  "about": "“Reduced inhibition of one-step RT-PCR” (Bio Rad Laboratories, Inc., priority 2007, dated 2015)",
  "test_system": "reverse transcriptase",
  "protocol": "Thaw all components, except the reverse transcriptase, at room temperature. Mix gently, but thoroughly, and then centrifuge at 4° C. to collect contents to the bottom of the tube. Chill on ice before using. Centrifuge again briefly at 4° C. if needed.\nTo a mixture of Taq DNA polymerase, dNTP (dATP, dCTP, dGTP and dTTP), magnesium chloride, stabilizers and SdC, is added a forward primer, a reverse primer, nuclease-free water and a reverse transcriptase. Assemble the reaction cocktail with all required components except sample template (total RNA) and dispense equal aliquots into each reaction tube. Add target sample (RNA template) to each reaction as the final step 5-10 μl volumes.\nThe reaction mixture is then incubated in a real-time thermal detection system as follows: • cDNA synthesis: 10 min at 50° C. • reverse transcriptase inactivation: 5 min at 95° C. • PCR cycling and detection (30 to 45 cycles): 10 sec at 95° C., followed by 30 sec at 55° C. to 60° C.",
  "note": "Where two headings read alike, the source gives them in different places.",
  "data": [
    {"compound": "Cc1ccc(C(=O)Nc2ccc(S(=O)(=O)O)c3cc(S(=O)(=O)O)cc(S(=O)(=O)O)c23)cc1NC(=O)c1cccc(NC(=O)Nc2cccc(C(=O)Nc3cc(C(=O)Nc4ccc(S(=O)(=O)O)c5cc(S(=O)(=O)O)cc(S(=O)(=O)O)c45)ccc3C)c2)c1", "note": "[suramin]", "values": [
      {"measurement": "inhibition of reverse transcriptase in one-step RT-PCR", "setting": "4 ng/μl suramin vs absence", "result": "reduces the inhibition of reverse transcriptase"},
      {"measurement": "specificity of one-step RT-PCR", "setting": "4 ng/μl suramin vs absence", "result": "significantly improves the specificity of one-step RT-PCR"}
    ]},
    {"compound": "phosphorothioate oligodeoxycytosine [SdC]", "values": [
      {"measurement": "inhibition of reverse transcriptase in one-step RT-PCR", "setting": "0.1, 0.5, 2 and 10 nM SdC", "result": "reduces the inhibition of reverse transcriptase"},
      {"measurement": "specificity of one-step RT-PCR", "setting": "0.1, 0.5, 2 and 10 nM SdC", "result": "significantly improves the specificity of one-step RT-PCR"}
    ]}
  ]
}
